The target in this assay is 5-hydroxytryptamine receptor 6 (Homo sapiens, UniProt P50406). Put plainly: Displacement of [3H]-lysergic acid diethylamine from human recombinant 5-HT6 receptor. In general terms: In a radioligand displacement assay an active substance lowers the binding of a labelled ligand.
5-hydroxytryptamine receptor 6, sequence (P50406 whole entry): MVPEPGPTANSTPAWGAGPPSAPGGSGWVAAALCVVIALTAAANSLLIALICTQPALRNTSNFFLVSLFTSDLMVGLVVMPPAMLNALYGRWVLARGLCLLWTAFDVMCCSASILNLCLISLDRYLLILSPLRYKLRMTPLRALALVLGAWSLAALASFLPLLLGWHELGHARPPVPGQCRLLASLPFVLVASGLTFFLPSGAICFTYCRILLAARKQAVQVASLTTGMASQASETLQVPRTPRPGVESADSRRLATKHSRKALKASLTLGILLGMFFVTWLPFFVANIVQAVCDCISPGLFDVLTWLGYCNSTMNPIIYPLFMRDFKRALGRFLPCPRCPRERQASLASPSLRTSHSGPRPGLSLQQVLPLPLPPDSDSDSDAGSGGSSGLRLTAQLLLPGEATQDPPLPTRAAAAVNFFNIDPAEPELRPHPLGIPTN

For the compound `COc1ccc(S(=O)(=O)Nc2cccc(COCC(F)(F)F)c2)cc1N1CCNCC1`, the Ki (commonly a dissociation constant, usually derived from enzyme kinetics or from competition with a known ligand) was under 10 nM. Then `COCc1cccc(NS(=O)(=O)c2ccc(OC)c(N3CCN(C)CC3)c2)c1`, with under 10 nM; and `CCOc1ccc(S(=O)(=O)Nc2cccc(COC)c2)cc1N1CCN(C)CC1`, with under 10 nM. Then `CCOc1ccc(S(=O)(=O)Nc2ccccc2COC)cc1N1CCN(C)CC1`, with under 10 nM. With `CCOCc1cccc(NS(=O)(=O)c2ccc(OC)c(N3CCNCC3)c2)c1`, the Ki was under 10 nM. As for `CCOc1ccc(S(=O)(=O)Nc2ccccc2COC)cc1N1CCNCC1`, the figure is under 10 nM; as for `COCc1ccc(NS(=O)(=O)c2ccc(OC)c(N3CCNCC3)c2)cc1`, under 100 nM.

For `COCc1ccccc1NS(=O)(=O)c1ccc(OC)c(N2CCNCC2)c1`, the Ki was under 10 nM. As for `COCc1cccc(NS(=O)(=O)c2ccc(C)c(N3CCNCC3)c2)c1`, the figure is under 10 nM; as for `COCc1cccc(NS(=O)(=O)c2ccc(OC)c(N3CCNCC3)c2)c1`, under 10 nM. Then `CCOc1ccc(S(=O)(=O)Nc2cccc(COC)c2)cc1N1CCNCC1`, with under 10 nM. For `COCc1ccccc1NS(=O)(=O)c1ccc(C)c(N2CCNCC2)c1`, the Ki was under 100 nM. As for `COCc1ccccc1NS(=O)(=O)c1ccc(C)c(N2CCN(C)CC2)c1`, the figure is under 100 nM; as for `COc1ccc(S(=O)(=O)Nc2cccc(C(C)OC)c2)cc1N1CCNCC1` (stereo not drawn), under 20 nM; as for `COCc1ccccc1NS(=O)(=O)c1ccc(OC)c(N2CCN(C)CC2)c1`, under 10 nM.

Take `COCc1cccc(N(C)S(=O)(=O)c2ccc(OC)c(N3CCNCC3)c2)c1`: the Ki is under 100 nM.

For `COCc1cccc(NS(=O)(=O)c2ccc(C)c(N3CCN(C)CC3)c2)c1`, the Ki was under 100 nM.

As to `COCc1cccc(NS(=O)(=O)c2ccc(OC)c(N3CCCNCC3)c2)c1`, the Ki was under 20 nM.

(Values after ChEMBL document CHEMBL2150919, “Benzenesulfonyl and Benzenesulfonamide as Modulators of the 5-HT6 Receptor: Patent Highlight” (ACS Med Chem Lett, 2012).)
